{
  "source": "patent US20030131363A1",
  "about": "“Heme-regulated eukaryotic initiation factor 2 alpha kinase knockout mice and methods for use” (Massachusetts Institute of Technology, priority 2001, published 2003)",
  "molecules": {"B1": {"name": "mouse HRI protein (heme-regulated eIF2 alpha kinase) in reticulocyte lysates (protein)", "chain": "MLGGSSVDGERDTDDDAAGAVAAPPAIDFPAEVSDPKYDESDVPAELQVLKEPLQQPTFPFLVANQLLLVSLLEHLSHVHEPNPLHSKQVFKLLCQTFIKMGLLSSFTCSDEFSSLRLHHNRAITHLMRSAKERVRQDPCQDNSYMQKIRSREIAFEAQTSRYLNEFEELAILGKGGYGRVYKVRNKLDGQHYAIKKILIKSATKTDCMKVLREVKVLAGLQHPNIVGYHTAWIEHVHVVQPQDRVPIQLPSLEVLSEQEGDRDQGGVKDNESSSSIVFAELTPEKEKPFGESEVKNENNNLVSYTANLVVRNSSESESSIELQEDGLTDLSVRPVVRHQLPLGHSSELEGNFTSTDESSEGNLNLLGQTEVRYHLMLHIQMQLCELSLWDWITERNKRSREYVDEAACPYVMASVATKIFQELVEGVFYIHNMGIVHRDLKPRNIFLHGPDQQVKIGDFGLACADIIQNADWTNRNGKGTRTHTSRVGTCLYASPEQLEGSQYDAKSDMYSLGVILLELFQPFGTEMERATVLTGVRTGRIPESLSKRCPVQAKYIQLLTGRNVSQRPSALQLLQSELFQTTGNVNLTLQMKIIEQEKEIEELKKQLSLLSQDRGLKR"}, "B2": {"name": "90 kDa polypeptide expressed from rabbit HRI cDNA (heme-regulated eIF-2 alpha kinase), in vitro translation product (protein)", "chain": "MLGGSAGTRGGEAEGDGAGAVGAVAPPPAIDFPAEVSDPKYDESDVPAELQVLKEPLQQPAFPFAVANQLLLVSLLEHLSHVHEPNPLRSRQVFKLLCQTFIKMGLLSSFTCSDEFSSLRLHHNRAITHLMRSARERVRQDPCADNSHIQKIRSREVALEAQTSRYLNEFEELSILGKGGYGRVYKVRNKLDGQYYAIKKILIKGATKTDCMKVLREVKVLAGLQHPNIVGYHTAWIEHVHVHVQADRVPIQLPSLEVLSDQEEDRDQYGVKNDASSSSSIIFAEFSPEKEKSSDECAVESQNNKLVNYTTNLVVRDTGEFESSTERQENGSIVERQLLFGHNSDVEEDFTSAEESSEEDLSALRHTEVQYHLMLHIQMQLCELSLWDWIAERNRRSRECVDESACPYVMVSVATKIFQELVEGVFYIHNMGIVHRDLKPRNIFLHGPDQQVKIGDFGLACADIIQKNAARTSRNGERAPTHTSRVGTCLYASPEQLEGSEYDAKSDMYSVGVILLELFQPFGTEMERAEVLTGVRAGRIPDSLSKRCPAQAKYVQLLTRRNASQRPSALQLLQSELFQNSAHVNLTLQMKIIEQEREIEELKKQLSLLSQARGVRSDRRDGELPA"}, "B3": {"name": "purified reticulocyte HRI (protein)", "chain": "B2 chain"}},
  "key": {"Wt mice": {"tested_on": "Wt mice", "assay": "Survival in phenylhydrazine-induced hemolysis, Wt mice", "conditions": "Wt mice with iron-deficiency, after two injections, 50 mg/Kg", "protocol": "(§1) States of iron deficiency have been and remain very common in humans. Thus, exposure to situations that render RBCs more fragile may be often concurrent with iron-deficiency, such as in thalassemias, sickle cell disease, malaria and other infections, extreme climatic conditions, ingestion of natural toxins, heavy metals or drugs. […] Both Wt and HRI−/− mice were injected with phenylhydrazine at the dosages as indicated at Days 0, 1 and 3. The mice were observed daily. […] Six mice of each genotype were used for each dosage. […] The standard phenylhydrazine regime employs three injections of phenylhydrazine on days 0, 1 and 3."}, "HRI−/− mice": {"tested_on": "HRI−/− mice", "assay": "Survival in phenylhydrazine-induced hemolysis, HRI−/− mice", "conditions": "iron-deficient HRI−/− mice, after two injections, 50 mg/Kg", "protocol": "as §1"}, "HRI +/+ reticulocytes": {"tested_on": "HRI +/+ reticulocytes", "assay": "[35S]-methionine incorporation / protein (globin) synthesis in isolated intact reticulocytes, HRI +/+", "assay_type": "cell-based, mouse", "protocol": "(§2) Mice were injected with phenylhydrazine at 40 mg/kg on days 0, 1 and 3 to induce hemolysis, and the subsequent erythropoiesis and release of reticulocytes into the blood stream. Blood samples were collected by heart puncture on day 7 when the reticulocyte counts were 85-95%. Reticulocytes were washed twice with ice-cold phosphate-buffered saline supplemented with 5 mM glucose. For protein synthesis assays, reticulocytes were resuspended in DMEM (2×10^8 cells/ml) with 1/10 concentration of methionine plus 2% dialyzed fetal bovine serum and preincubated for 30 min at 37_C for recovery. […] Incorporation of the [^35S]-methionine in the globin chains and other proteins was analyzed by 15% SDS-PAGE, and subsequent transfer to nitrocellulose membranes. Protein synthesis in reticulocytes was quantitated by scintillation counting of the nitrocellulose strips containing globin chains. Phosphorylation of HRI and eIF2a in isolated reticulocytes were analyzed by western blot analysis following 7.5% and 12% SDS-PAGE respectively. […]\n(§3) HRI−/− mice are viable and fertile without gross morphological abnormalities. […] The IF2Alpha kinase activity of HRI in reticulocyte lysates was determined using in vitro protein kinase assays. The extent of the eIF2a phosphorylation was determined by western-blot analysis using antibody specific to the phosphorylated eIF2a. […]"}, "HRI−/− reticulocytes": {"tested_on": "HRI−/− reticulocytes", "assay": "[35S]-methionine incorporation / protein (globin) synthesis in isolated intact reticulocytes, HRI−/−", "assay_type": "cell-based, mouse", "protocol": "as §2, §3"}, "[1]": {"biological_target": "T1, endogenous eIF2 of mouse reticulocyte lysates (alpha subunit as substrate), Q6ZWX6", "T1 chain": "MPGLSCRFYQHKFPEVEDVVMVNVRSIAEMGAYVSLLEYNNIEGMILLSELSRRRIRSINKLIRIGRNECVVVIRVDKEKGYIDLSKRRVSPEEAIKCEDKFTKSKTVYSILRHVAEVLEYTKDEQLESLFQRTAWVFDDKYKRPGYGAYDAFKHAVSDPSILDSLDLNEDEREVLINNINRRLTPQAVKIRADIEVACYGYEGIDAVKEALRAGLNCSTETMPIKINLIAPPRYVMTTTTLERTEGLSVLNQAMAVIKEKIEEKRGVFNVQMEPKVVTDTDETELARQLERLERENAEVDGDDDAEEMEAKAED"}, "[2]": {"biological_target": "purified rabbit reticulocyte eIF-2 (alpha subunit as substrate), P83268", "sequence (P83268 whole entry, looked up, tested part not stated)": "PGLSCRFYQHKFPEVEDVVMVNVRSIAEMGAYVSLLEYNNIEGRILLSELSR"}, "[3]": {"biological_target": "purified wheat germ eIF-2Alpha"}},
  "data": [
    {"molecule": "NNc1ccccc1", "note": "[phenylhydrazine]", "values": [
      {"measurement": "Survival", "setting": "Wt mice", "result": "~100", "unit": "%"},
      {"measurement": "Mice died", "setting": "HRI−/− mice", "result": 90, "unit": "%"}
    ]},
    {"molecule": "C[C@@H]1C[C@@H]([C@H](O)CC2CC(=O)NC(=O)C2)C(=O)[C@@H](C)C1", "note": "[cycloheximide]", "values": [
      {"measurement": "Protein synthesis, inhibition", "setting": "HRI +/+ reticulocytes; Wt reticulocytes, cycloheximide (2 ìM per method)", "result": "inhibited equally well"},
      {"measurement": "Protein synthesis, inhibition", "setting": "HRI−/− reticulocytes; cycloheximide (2 ìM per method)", "result": "inhibited equally well"}
    ]},
    {"molecule": "hemin", "values": [
      {"measurement": "Incorporation of [35S]-methionine into globins", "setting": "HRI +/+ reticulocytes; +/+ reticulocytes, pre-treatment with 40_M hemin for 30 min prior to [35S]-methionine", "result": "208 % of control"},
      {"measurement": "Protein synthesis, effect of addition of hemin", "setting": "HRI−/− reticulocytes; hemin added", "result": "not affected"}
    ]},
    {"molecule": "B1", "values": [
      {"measurement": "in vitro eIF2 Alpha phosphorylation in reticulocyte lysates with endogenous eIF2 as substrate", "setting": "[1]", "result": "In vitro eIF2 Alpha phosphorylation occurred in reticulocyte lysates from +/+ mice ... little eIF2 phosphorylation was detected in the reticulocyte lysates of HRI-/- mice"}
    ]},
    {"molecule": "B2", "values": [
      {"measurement": "eIF-2Alpha kinase activity (32P protein kinase assay, SDS-gel electrophoresis)", "setting": "[2]", "result": "translational products of HRI 2A and HRI 2B mRNAs have enhanced eIF-2Alpha kinase activity as compared to the control in the absence of added mRNA"}
    ]},
    {"molecule": "B3", "values": [
      {"measurement": "phosphorylation of eIF-2Alpha (protein kinase assay)", "setting": "[3]", "result": "the purified reticulocyte HRI phosphorylates purified wheat germ eIF-2Alpha very inefficiently"}
    ]}
  ]
}
